Patent US20210045385A1, “PYRIDAZINONE-SUBSTITUTED KETOXIMES AS HERBICIDES” (FMC Corporation, priority 2018, published 2021)

Key:
Type in all cases: in vivo
[1] = test system: foxtail, giant (giant foxtail, Setaria faberi); assay: Test C postemergence, visual plant response rating
Summary of the method: (§1)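 Compounds in a non-phytotoxic solvent with surfactant were applied as a directed soil spray preemergence or to 2–10 cm, one- to two-leaf plants postemergence, in loam–sand soil. After about 10 d in a greenhouse, injury was visually rated against untreated controls on a 0–100 scale (100 = complete control).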

[2] = test system: wheat (Triticum aestivum); assay: Test C postemergence, visual plant response rating
Summary of the method: as §1

[3] = test system: corn (Zea mays); assay: Test C postemergence, visual plant response rating
Summary of the method: as §1

[4] = test system: barnyardgrass (Echinochloa crus-galli); assay: Test C postemergence, visual plant response rating
Summary of the method: as §1

[5] = test system: blackgrass (Alopecurus myosuroides); assay: Test C postemergence, visual plant response rating
Summary of the method: as §1

[6] = test system: kochia (Bassia scoparia); assay: Test C postemergence, visual plant response rating
Summary of the method: as §1

[7] = test system: pigweed (Amaranthus retroflexus); assay: Test C postemergence, visual plant response rating
Summary of the method: as §1

[8] = test system: galium (catchweed bedstraw, Galium aparine); assay: Test C postemergence, visual plant response rating
Summary of the method: as §1

[9] = test system: ragweed (common ragweed, Ambrosia artemisiifolia); assay: Test C postemergence, visual plant response rating
Summary of the method: as §1

[10] = test system: Italian ryegrass (Lolium mutiflorum); assay: Test C postemergence, visual plant response rating
Summary of the method: as §1

[11] = test system: sedge umbrella (small-flower umbrella sedge, Cyperus difformis); assay: Test D flooded paddy test, visual plant response rating; settings: 250 g ai/ha, scale 0 to 100 (0 no effect, 100 complete control), 13 to 15 d
Summary of the method: (§2)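 Plants were grown to the 2-leaf stage, pots flooded to 3 cm above soil, and compound applied directly into the paddy water, with the depth held throughout. After 13 to 15 d in a greenhouse, response was rated visually against untreated controls on a 0–100 scale (0 no effect, 100 complete control).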

[12] = test system: barnyardgrass (Echinochloa crus-galli); assay: as above; settings: 250 g ai/ha, scale 0 to 100 (0 no effect, 100 complete control), 13 to 15 d
Summary of the method: as §2

[13] = test system: duck salad (Heteranthera limosa); assay: as above; settings: 250 g ai/ha, scale 0 to 100 (0 no effect, 100 complete control), 13 to 15 d
Summary of the method: as §2

[14] = test system: rice (Oryza sativa); assay: as above; settings: 250 g ai/ha, scale 0 to 100 (0 no effect, 100 complete control), 13 to 15 d
Summary of the method: as §2

[15] = test system: foxtail, giant (giant foxtail, Setaria faberi); assay: Test C preemergence, visual plant response rating; settings: Test C, 0 is no effect, 100 is complete control
Summary of the method: as §1

[16] = test system: barnyardgrass (Echinochloa crus-galli); assay: Test C preemergence, visual plant response rating; settings: Test C, 0 is no effect, 100 is complete control
Summary of the method: as §1

[17] = test system: kochia (Bassia scoparia); assay: Test C preemergence, visual plant response rating; settings: Test C, 0 is no effect, 100 is complete control
Summary of the method: as §1

[18] = test system: pigweed (Amaranthus retroflexus); assay: Test C preemergence, visual plant response rating; settings: Test C, 0 is no effect, 100 is complete control
Summary of the method: as §1

[19] = test system: ragweed (common ragweed, Ambrosia artemisiifolia); assay: Test C preemergence, visual plant response rating; settings: Test C, 0 is no effect, 100 is complete control
Summary of the method: as §1

[20] = test system: Italian ryegrass (Lolium mutiflorum); assay: Test C preemergence, visual plant response rating; settings: Test C, 0 is no effect, 100 is complete control
Summary of the method: as §1

[21] = Test C, postemergence, 125 g ai/ha

| SMILES | Foxtail, Giant plant response rating (0 to 100 scale) ([1]; Postemergence, 31 g ai/ha) | Foxtail, Giant plant response rating (0 to 100 scale) [1, 21] | Wheat plant response rating (0 to 100 scale) ([2]; Postemergence, 31 g ai/ha) | Wheat plant response rating (0 to 100 scale) [2, 21] | Corn plant response rating (0 to 100 scale) ([3]; Postemergence, 31 g ai/ha) | Corn plant response rating (0 to 100 scale) [3, 21] | Barnyardgrass plant response rating (0 to 100 scale) ([4]; Postemergence, 31 g ai/ha) | Barnyardgrass plant response rating (0 to 100 scale) [4, 21] | Blackgrass plant response rating (0 to 100 scale) ([5]; Postemergence, 31 g ai/ha) | Blackgrass plant response rating (0 to 100 scale) [5, 21] | Kochia plant response rating (0 to 100 scale) ([6]; Postemergence, 31 g ai/ha) | Kochia plant response rating (0 to 100 scale) [6, 21] | Pigweed plant response rating (0 to 100 scale) ([7]; Postemergence, 31 g ai/ha) | Pigweed plant response rating (0 to 100 scale) [7, 21] | Galium plant response rating (0 to 100 scale) ([8]; Postemergence, 31 g ai/ha) | Galium plant response rating (0 to 100 scale) [8, 21] | Ragweed plant response rating (0 to 100 scale) ([9]; Postemergence, 31 g ai/ha) | Ragweed plant response rating (0 to 100 scale) [9, 21] | Ryegrass, Italian plant response rating (0 to 100 scale) ([10]; Postemergence, 31 g ai/ha) | Ryegrass, Italian plant response rating (0 to 100 scale) [10, 21] | other results |
| --- | --- | --- | --- | --- | --- | --- | --- | --- | --- | --- | --- | --- | --- | --- | --- | --- | --- | --- | --- | --- | --- |
| C#CCO/N=C(\c1cccc(/C=C/Cl)c1)c1c(O)c(C)nn(C)c1=O [Compound 254] | 20 | 60 | 30 | 60 | 0 | 10 | 30 | 50 | 10 | 70 | 50 | 70 | 20 | 70 | 0 | 40 | 30 | 50 | 20 | 70 | Plant response rating, Sedge, Umbrella (Flood) [11]: 0; Plant response rating, Barnyardgrass (Flood) [12]: 0; Plant response rating, Ducksalad (Flood) [13]: 0; Plant response rating, Rice (Flood) [14]: 0; Foxtail, Giant plant response rating (0 to 100 scale) ([15]; 31 g ai/ha): 0; Foxtail, Giant plant response rating (0 to 100 scale) ([15]; 125 g ai/ha): 40; Barnyardgrass plant response rating (0 to 100 scale) ([16]; 31 g ai/ha): 0; Barnyardgrass plant response rating (0 to 100 scale) ([16]; 125 g ai/ha): 0; Kochia plant response rating (0 to 100 scale) ([17]; 31 g ai/ha): 0; Kochia plant response rating (0 to 100 scale) ([17]; 125 g ai/ha): 0; Pigweed plant response rating (0 to 100 scale) ([18]; 31 g ai/ha): 0; Pigweed plant response rating (0 to 100 scale) ([18]; 125 g ai/ha): 10; Ragweed plant response rating (0 to 100 scale) ([19]; 31 g ai/ha): 40; Ragweed plant response rating (0 to 100 scale) ([19]; 125 g ai/ha): 90; Ryegrass, Italian plant response rating (0 to 100 scale) ([20]; 31 g ai/ha): 20; Ryegrass, Italian plant response rating (0 to 100 scale) ([20]; 125 g ai/ha): 60 |
| CO/N=C(\c1c(O)c(C)nn(C)c1=O)c1cccc2cc(Cl)ccc12 [Compound 300] | 60 | 80 | 0 | 0 | 10 | 30 | 30 | 70 | 30 | 80 | 40 | 50 | 80 | 80 | 90 | 100 | 30 | 90 | 10 | 40 | Plant response rating, Sedge, Umbrella (Flood) [11]: 45; Plant response rating, Barnyardgrass (Flood) [12]: 15; Plant response rating, Ducksalad (Flood) [13]: 55; Plant response rating, Rice (Flood) [14]: 20; Foxtail, Giant plant response rating (0 to 100 scale) ([15]; 31 g ai/ha): 40; Foxtail, Giant plant response rating (0 to 100 scale) ([15]; 125 g ai/ha): 80; Barnyardgrass plant response rating (0 to 100 scale) ([16]; 31 g ai/ha): 40; Barnyardgrass plant response rating (0 to 100 scale) ([16]; 125 g ai/ha): 60; Kochia plant response rating (0 to 100 scale) ([17]; 31 g ai/ha): 0; Kochia plant response rating (0 to 100 scale) ([17]; 125 g ai/ha): 30; Pigweed plant response rating (0 to 100 scale) ([18]; 31 g ai/ha): 30; Pigweed plant response rating (0 to 100 scale) ([18]; 125 g ai/ha): 90; Ragweed plant response rating (0 to 100 scale) ([19]; 31 g ai/ha): 0; Ragweed plant response rating (0 to 100 scale) ([19]; 125 g ai/ha): 20; Ryegrass, Italian plant response rating (0 to 100 scale) ([20]; 31 g ai/ha): 10; Ryegrass, Italian plant response rating (0 to 100 scale) ([20]; 125 g ai/ha): 70 |
| C#CCO/N=C(/c1c(O)c(C)nn(C)c1=O)c1cccc2cc(Cl)ccc12 [Compound 242] | 70 | 80 | 0 | 60 | 0 | 20 | 80 | 90 | 80 | 90 | 40 | 50 | 90 | 100 | 80 | 100 | 50 | 90 | 40 | 90 | Plant response rating, Sedge, Umbrella (Flood) [11]: 100; Plant response rating, Barnyardgrass (Flood) [12]: 95; Plant response rating, Ducksalad (Flood) [13]: 98; Plant response rating, Rice (Flood) [14]: 85; Foxtail, Giant plant response rating (0 to 100 scale) ([15]; 31 g ai/ha): 80; Foxtail, Giant plant response rating (0 to 100 scale) ([15]; 125 g ai/ha): 100; Barnyardgrass plant response rating (0 to 100 scale) ([16]; 31 g ai/ha): 60; Barnyardgrass plant response rating (0 to 100 scale) ([16]; 125 g ai/ha): 90; Kochia plant response rating (0 to 100 scale) ([17]; 31 g ai/ha): 30; Kochia plant response rating (0 to 100 scale) ([17]; 125 g ai/ha): 50; Pigweed plant response rating (0 to 100 scale) ([18]; 31 g ai/ha): 100; Pigweed plant response rating (0 to 100 scale) ([18]; 125 g ai/ha): 100; Ragweed plant response rating (0 to 100 scale) ([19]; 31 g ai/ha): 80; Ragweed plant response rating (0 to 100 scale) ([19]; 125 g ai/ha): 90; Ryegrass, Italian plant response rating (0 to 100 scale) ([20]; 31 g ai/ha): 10; Ryegrass, Italian plant response rating (0 to 100 scale) ([20]; 125 g ai/ha): 90 |
